Drawing on PubChem BioAssay AID328 (DTP/NCI, 2004), this text covers T/C for 17 molecules.

For this test, the system named is BDF1 mice, P388 leukemia ip, median survival T/C. Kind of test: NCI In Vivo Anticancer Drug Screen. Data for tumor model P388 Leukemia (intraperitoneal) in B6D2F1 (BDF1) mice. The following applies: endpoint: median survival time, higher = longer survival. Summed up: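 In tumour-bearing mice, survival after compound treatment is set against the vehicle group and given as a quotient.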

[1] abbreviates: dose: 25.0 mg/kg/injection, schedule: Q01DX009 (ip), vehicle: saline.
The mark [2] stands for this setting: dose: 50.0 mg/kg/injection, schedule: Q01DX009 (ip), vehicle: saline.
[3] abbreviates: dose: 100.0 mg/kg/injection, schedule: Q01DX009 (ip), vehicle: saline.
Where [4] appears, read: dose: 12.5 mg/kg/injection, schedule: Q01DX009 (ip), vehicle: Klucel (hydroxypropylcellulose) (HPC).
[5] abbreviates: dose: 100.0 mg/kg/injection, schedule: Q04DX003 (ip), vehicle: saline with Tween-80.
The mark [6] stands for this setting: dose: 200.0 mg/kg/injection, schedule: Q04DX003 (ip), vehicle: saline with Tween-80.
[7] abbreviates: dose: 400.0 mg/kg/injection, schedule: Q04DX003 (ip), vehicle: saline with Tween-80.
[8] abbreviates: dose: 50.0 mg/kg/injection, schedule: Q04DX003 (ip), vehicle: Klucel (hydroxypropylcellulose) (HPC).
Setting [9] is: dose: 100.0 mg/kg/injection, schedule: Q04DX003 (ip), vehicle: saline.
Setting [10] is: dose: 100.0 mg/kg/injection, schedule: Q01DX001 (ip), vehicle: Klucel (hydroxypropylcellulose) (HPC).
Setting [11] is: dose: 200.0 mg/kg/injection, schedule: Q01DX001 (ip), vehicle: Klucel (hydroxypropylcellulose) (HPC).
The mark [12] stands for this setting: dose: 400.0 mg/kg/injection, schedule: Q01DX001 (ip), vehicle: Klucel (hydroxypropylcellulose) (HPC).
Where [13] appears, read: dose: 100.0 mg/kg/injection, schedule: Q04DX003 (ip), vehicle: Klucel (hydroxypropylcellulose) (HPC).
Where [14] appears, read: dose: 200.0 mg/kg/injection, schedule: Q04DX003 (ip), vehicle: Klucel (hydroxypropylcellulose) (HPC).
The mark [15] stands for this setting: dose: 100.0 mg/kg/injection, schedule: Q01DX009 (ip), vehicle: saline with Tween-80.
The mark [16] stands for this setting: dose: 6.25 mg/kg/injection, schedule: Q01DX009 (ip), vehicle: saline with Tween-80.
[17] abbreviates: dose: 12.5 mg/kg/injection, schedule: Q01DX009 (ip), vehicle: saline with Tween-80.

Where “and” joins values, the source holds several entries; their conditions need not be identical. Identical values can stand only once. Inconclusive results and toxic doses are left out.

Consider `C=CC[n+]1ccc(/C=N\NC(N)=S)c2ccccc21`, for which the T/C is 111 % of control (dose: 6.25 mg/kg/injection, schedule: Q01DX009 (ip), vehicle: saline); 101 % of control (dose: 12.5 mg/kg/injection, schedule: Q01DX009 (ip), vehicle: saline); 106 % of control under setting [1].

For the molecule `CCC(CO)N1CNC(=S)NC1` (stereo not given), the T/C by setting is: under setting [2], 97 % of control; under setting [3], 92 % of control; (dose: 200.0 mg/kg/injection, schedule: Q01DX009 (ip), vehicle: saline) 108 % of control.

With `C[CH2][Pb]([CH2]C)([CH2]C)[O]C(=O)c1ccc(N)cc1`, the T/C (dose: 0.75 mg/kg/injection, schedule: Q01DX009 (ip), vehicle: Klucel (hydroxypropylcellulose) (HPC)) is 100 % of control; the T/C (dose: 1.5 mg/kg/injection, schedule: Q01DX009 (ip), vehicle: Klucel (hydroxypropylcellulose) (HPC)) is 110 % of control; the T/C (dose: 1.56 mg/kg/injection, schedule: Q01DX009 (ip), vehicle: Klucel (hydroxypropylcellulose) (HPC)) was 111 % of control; the T/C (dose: 3.0 mg/kg/injection, schedule: Q01DX009 (ip), vehicle: Klucel (hydroxypropylcellulose) (HPC)) was 110 % of control and 117 % of control; the T/C (dose: 3.12 mg/kg/injection, schedule: Q01DX009 (ip), vehicle: Klucel (hydroxypropylcellulose) (HPC)) was 114 % of control and 119 % of control; the T/C (dose: 6.0 mg/kg/injection, schedule: Q01DX009 (ip), vehicle: Klucel (hydroxypropylcellulose) (HPC)) was 119 % of control and 122 % of control. Further, the T/C by setting is: (dose: 6.25 mg/kg/injection, schedule: Q01DX009 (ip), vehicle: Klucel (hydroxypropylcellulose) (HPC)) 104 % of control; (dose: 12.0 mg/kg/injection, schedule: Q01DX009 (ip), vehicle: Klucel (hydroxypropylcellulose) (HPC)) 99 % of control; under setting [4], 93 % of control and 106 % of control.

`Clc1ccccc1CCCBr`: the T/C under setting [5] was 95 % of control, the T/C under setting [6] is 100 % of control and the T/C under setting [7] is 105 % of control.

In the case of `CS(=O)(=O)Nc1ccc(Nc2c3ccccc3nc3ccccc23)cc1`, the T/C is 109 % of control (dose: 15.0 mg/kg/injection, schedule: Q04DX003 (ip), vehicle: Klucel (hydroxypropylcellulose) (HPC)); 95 % of control (dose: 25.0 mg/kg/injection, schedule: Q01DX009 (ip), vehicle: Klucel (hydroxypropylcellulose) (HPC)); 120 % of control (dose: 50.0 mg/kg/injection, schedule: Q01DX009 (ip), vehicle: Klucel (hydroxypropylcellulose) (HPC)); 122 % of control under setting [8]; 200 % of control and 209 % of control under setting [9]; 159 % of control (dose: 150.0 mg/kg/injection, schedule: Q04DX003 (ip), vehicle: Klucel (hydroxypropylcellulose) (HPC)). Moreover, the T/C by setting is: (dose: 175.0 mg/kg/injection, schedule: Q04DX003 (ip), vehicle: saline) 237 % of control; (dose: 200.0 mg/kg/injection, schedule: Q04DX003 (ip), vehicle: saline) 204 % of control and 223 % of control; (dose: 265.0 mg/kg/injection, schedule: Q04DX003 (ip), vehicle: saline) 250 % of control; (dose: 400.0 mg/kg/injection, schedule: Q04DX003 (ip), vehicle: saline) 272 % of control and 95 % of control and 100 % of control.

`c1ccc(CC(Cc2ccccc2)c2nc3ccccc3s2)cc1`: the T/C reads like this: (dose: 75.0 mg/kg/injection, schedule: Q04DX003 (ip), vehicle: saline) 100 % of control; (dose: 150.0 mg/kg/injection, schedule: Q04DX003 (ip), vehicle: saline) 100 % of control; (dose: 300.0 mg/kg/injection, schedule: Q04DX003 (ip), vehicle: saline) 95 % of control.

In the case of `CN(CCOc1ccccc1O)CCOc1ccccc1O`, the T/C under setting [10] is 120 % of control, the T/C under setting [11] was 110 % of control and the T/C under setting [12] is 105 % of control.

Consider `C[CH2][Pb]([CH2]C)([CH2]C)[O][As](=O)(O)c1ccc(N)cc1`, for which the T/C was 107 % of control (dose: 1.5 mg/kg/injection, schedule: Q01DX009 (ip), vehicle: saline); 111 % of control (dose: 2.0 mg/kg/injection, schedule: Q01DX009 (ip), vehicle: saline); 103 % of control (dose: 3.0 mg/kg/injection, schedule: Q01DX009 (ip), vehicle: saline); 95 % of control (dose: 4.5 mg/kg/injection, schedule: Q01DX009 (ip), vehicle: saline).

Consider `c1ccc(Nc2ccc(Nc3ccccc3)cc2)cc1`, for which the T/C under setting [8] was 118 % of control; the T/C under setting [10] was 90 % of control; the T/C under setting [13] was 104 % of control; the T/C under setting [11] was 100 % of control; the T/C under setting [14] was 104 % of control; the T/C under setting [12] is 90 % of control.

For `C[N+](C)(CCCCOCCCC[N+](C)(C)Cc1ccc([N+](=O)[O-])cc1)Cc1ccc([N+](=O)[O-])cc1`, the T/C is 100 % of control (dose: 0.19 mg/kg/injection, schedule: Q01DX009 (ip), vehicle: saline with Tween-80); 104 % of control (dose: 0.37 mg/kg/injection, schedule: Q01DX009 (ip), vehicle: saline with Tween-80); 108 % of control (dose: 0.75 mg/kg/injection, schedule: Q01DX009 (ip), vehicle: saline with Tween-80); 96 % of control (dose: 1.5 mg/kg/injection, schedule: Q01DX009 (ip), vehicle: saline with Tween-80); 109 % of control (dose: 1.5 mg/kg/injection, schedule: Q04DX003 (ip), vehicle: saline with Tween-80); 104 % of control (dose: 3.0 mg/kg/injection, schedule: Q04DX003 (ip), vehicle: saline with Tween-80).

In the case of `CCOC(=O)/C=C(\C)C(C)=O`, the T/C under setting [15] is 104 % of control; the T/C under setting [5] is 109 % of control; the T/C (dose: 200.0 mg/kg/injection, schedule: Q01DX009 (ip), vehicle: saline with Tween-80) was 109 % of control; the T/C under setting [6] is 104 % of control; the T/C (dose: 400.0 mg/kg/injection, schedule: Q01DX009 (ip), vehicle: saline with Tween-80) is 113 % of control; the T/C under setting [7] is 118 % of control.

As for `CCN(CC)CCSC(=O)C(O)(c1ccccc1)C1CCCC1` (stereo not given), the T/C reads like this: under setting [1], 109 % of control; (dose: 25.0 mg/kg/injection, schedule: Q04DX003 (ip), vehicle: saline) 109 % of control; under setting [2], 95 % of control; (dose: 50.0 mg/kg/injection, schedule: Q04DX003 (ip), vehicle: saline) 104 % of control; under setting [3], 113 % of control; under setting [9], 109 % of control.

As for `O=C(CCl)c1ccc(O)c(O)c1`, the T/C is 109 % of control (dose: 3.12 mg/kg/injection, schedule: Q01DX009 (ip), vehicle: saline with Tween-80); 104 % of control (dose: 4.5 mg/kg/injection, schedule: Q04DX003 (ip), vehicle: saline with Tween-80); 109 % of control under setting [16]; 100 % of control (dose: 9.0 mg/kg/injection, schedule: Q04DX003 (ip), vehicle: saline with Tween-80); 106 % of control and 120 % of control under setting [4]; 122 % of control under setting [17]. Also, the T/C (dose: 40.0 mg/kg/injection, schedule: Q01DX001 (ip), vehicle: saline) is 118 % of control.

On to `O=C1CN(c2ccccc2)CC(=O)N2Cc3ccccc3CN12`, for which, where the note is “dose: 100.0 mg/kg/injection, schedule: Q01DX005 (ip), vehicle: saline with Tween-80”, the T/C is 101 % of control.

For the molecule `Nc1nc(N)c2c(n1)CCCC2`, the T/C reads like this: under setting [16], 100 % of control; under setting [17], 90 % of control; (dose: 25.0 mg/kg/injection, schedule: Q01DX009 (ip), vehicle: saline with Tween-80) 90 % of control.

As to `CCCOP(=S)(N1CC1(C)C)N1CC1(C)C` (stereo not given), the T/C is, setting by setting: (dose: 66.0 mg/kg/injection, schedule: Q01DX009 (ip), vehicle: saline with Tween-80) 168 % of control; under setting [15], 209 % of control and 222 % of control; under setting [5], 116 % of control; under setting [6], 108 % of control.

On to `CCCCCCCCCC(O)CCC` (stereo not given), for which the T/C under setting [13] was 95 % of control; the T/C under setting [14] is 95 % of control; the T/C (dose: 400.0 mg/kg/injection, schedule: Q04DX003 (ip), vehicle: Klucel (hydroxypropylcellulose) (HPC)) was 95 % of control.
